Assay results from patent US6451806B2, “Methods and compositions involving opioids and antagonists thereof” (Adolor Corporation, priority 1999, dated 2002).

Experiments:
[1] = solubility in water; assay type: physicochemical; details: except at low or high pH conditions
Text: Zwitterionic character may be inherent to the compound, and may impart desirable properties such as poor systemic absorption and sustained local affect on the gut following oral administration.

[2] = system: morphine-induced constipation in mice; experiment: mouse model of opioid-induced constipation (charcoal meal transit time); assay type: in vivo
Text: This establishes that the compound of formula (II) is a gut-selective and peripherally-selective mu antagonist compound. In addition, it is orally effective in preventing or reversing morphine-induced constipation in mice.

[3] = system: inhibition of gastrointestinal transit produced by MS Contin; experiment: Phase I study in volunteers with oral sustained-release morphine (MS Contin); assay type: in vivo, humans; details: 3 mg oral three times daily for 4 days, MS Contin 30 mg twice daily
Text: Pupil size was used as a surrogate measure of the morphine's analgesic activity.

[4] = system: analgesia and pupil constriction produced by intravenous morphine sulfate; experiment: Phase II clinical study, third molar extraction dental surgery, intravenous morphine sulfate; assay type: in vivo, humans; details: 4 mg total oral dose
[5] = system: effect of intravenous morphine sulfate on upper gastrointestinal motility; experiment: Phase I study in healthy volunteers with intravenous morphine sulfate; assay type: in vivo, humans; details: 4 mg oral dose
[6] = system: loperamide-induced slowing of gut motility; experiment: clinical crossover study of loperamide-induced slowing of gut motility (colonic transit time); assay type: in vivo; details: man, 8 mg b.i.d. oral loperamide
Experimental: A clinical study in man was an 8 subject multiple crossover study of the effects of oral pre-treatment with placebo, 2.4 mg or 24 mg t.i.d. of the compound of formula (II) on slowing of gut motility induced with 8 mg of b.i.d. of oral loperamide (a peripheral mu opioid agonist). […] The graph presents the effects of 2.4 or 24 mg of the compound of formula (II) on colonic transit time (in hours) following administration of loperamide. The loperamide dose was constant in the three treatment groups.

[7] = system: postsurgical opioid effects, postoperative nausea and vomiting; experiment: Phase II clinical study, partial colectomy or hysterectomy, postoperative nausea and vomiting (VAS); assay type: in vivo, humans; details: for patients reporting VAS nausea scores over 20 / patients exhibiting no nausea (highest VAS score=0): postoperative morphine or meperidine
Experimental: A 78 patient Phase II clinical study was conducted which compared two doses (2 mg and 12 mg) of the compound of formula (II) versus placebo in patients undergoing partial colectomy or simple or radical hysterectomy surgical procedures. All patients in this clinical study received morphine or meperidine infusions to treat postoperative pain. Oral doses of compound (II) or placebo were administered to block postsurgical opioid effects, including postoperative nausea and vomiting. Results of this study comparing patients receiving 12 mg of compound (II) and placebo are depicted graphically in FIGS. 2A and 2B.
The intensity of nausea was evaluated by patients on a 100-point visual analog scale (VAS) with VAS=0 being no nausea and VAS=100 being the worst nausea that a patient could imagine. The highest VAS nausea score (worst nausea) recorded for each patient was computed and the distributions of these maximum values were compared among the treatment groups. […] The overall treatment differences in the distributions were significant when compared using a Kruskal-Wallis test (P=0.0184). The improved outcomes observed in the 12 mg per day dose group are evident in the pairwise comparisons based on the Wilcoxon rank sum tests.

[8] = system: opioid-induced nausea and pruritus; details: Yuan, C.-S. et al. Drug and Alcohol Dependence 1998, 52, 161; cited from earlier work

| solubility in water [1] | SMILES | reversal of morphine-induced constipation ([2]; chronic morphine treated mice) | prevention of acute morphine-induced constipation (charcoal meal transit time) ([2]; mice, orally administered) | MS Contin effects on pupil size (surrogate of analgesic activity) [3] | inhibition of gastrointestinal transit produced by oral sustained-release morphine [3] | patients withdrawn for adverse effects [4] | antagonism of analgesia produced by intravenous morphine sulfate ([4]; patients) | antagonism of pupil constriction produced by intravenous morphine sulfate ([4]; patients) | effect of intravenous morphine sulfate on upper gastrointestinal motility ([5]; P<0.01) | morphine-induced nausea ([5]; P=0.07) | loperamide-induced slowing of gut motility (colonic transit time) ([6]; 2.4 mg t.i.d. oral pre-treatment) | loperamide-induced slowing of gut motility (colonic transit time) ([6]; 24 mg t.i.d. oral pre-treatment) | reduction in postoperative pain control ([7]; 2 mg and 12 mg oral doses) | serious adverse side effects judged related to the compound ([7]; 2 mg and 12 mg oral doses) | patients reporting VAS nausea scores over 20 ([7]; 2 mg dose group) [%] | patients exhibiting no nausea (highest VAS score=0) ([7]; 2 mg per day oral) | patients exhibiting no nausea (highest VAS score=0) ([7]; 12 mg per day oral) [%] | patients reporting VAS nausea scores over 20 ([7]; 12 mg per day oral) [%] | distribution of highest VAS nausea score compared to placebo ([7]; 12 mg per day, Wilcoxon rank sum test, P=0.0072) | incidence of opioid-induced nausea and pruritus [8] |
| --- | --- | --- | --- | --- | --- | --- | --- | --- | --- | --- | --- | --- | --- | --- | --- | --- | --- | --- | --- | --- |
| low solubility in water | C[C@H]1CN(C[C@H](Cc2ccccc2)C(=O)NCC(=O)O)CCC1(C)c1cccc(O)c1 (some centres unmarked) [compound of formula (II)] | even more potent in reversing morphine-induced constipation | prevented acute morphine-induced constipation | without antagonizing MS Contin® effects on pupil size | blocked the inhibition of gastrointestinal transit | No patients were withdrawn for adverse effects | did not antagonize | did not antagonize | blocked the effect of intravenous morphine sulfate on upper gastrointestinal motility | trend toward antagonizing morphine-induced nausea | prevented loperamide-induced slowing of gut motility | prevented loperamide-induced slowing of gut motility | None of the patients | No patients experienced serious adverse side effects | 67 | approximately 25% | ~40 | 27 | statistically significantly improved |  |
|  | C[N@+]1(CC2CC2)CC[C@]23c4c5ccc(O)c4O[C@H]2C(=O)CC[C@@]3(O)[C@H]1C5 [methylnaltrexone] |  |  |  |  |  |  |  |  |  |  |  |  |  |  |  |  |  |  | effectively reduce the incidence of opioid-induced nausea and pruritus |
